Assay [1] deals with lymphocyte proliferation in the human MLR. The assay is classed as cell-based. To be noted: for effect on the human MLR in combination with CTLA-4Ig: CTLA-4Ig spiked in at 0.5 μg/ml (FIG. 8); for Human MLR (ability to inhibit lymphocyte proliferation, cpm): peptide 12.5 to 100 μM, assays of 1/24, 1/31, 3/6, 4/17, 5/2, one symbol per assay; for inhibition of the MLR, in words: control and linear peptides compared with AT 199. How it is done: Whole blood from donors was obtained from Interstate Blood Bank, Memphis, Tenn. Blood specimens were handled in a biosafety level 2 containment facility as recommended for potentially infectious blood specimens in the CDC/NIH manual Biosafety in Microbiological and Biomedical Laboratories; 3rd edition, 1993, page 10. Peripheral blood mononuclear cells (PBMC) were separated from red blood cells and granulocytes by ficoll-hypaque purification. Whole peripheral blood was diluted 1:2 in PBS and 30 ml was overlayed onto 15 ml of ficoll-hypaque in 50 ml polypropylene tubes. The tubes were spun at 400×g for 30 min at 25° C. Following centrifugation, the interface between the upper plasma layer and the lower ficoll layer was collected, cells washed in RPMI-1640 2×, and viable counts determined using trypan blue. Cells to be used as responders in the assay were stored on ice until mitomycin C treatment of stimulator cells was completed.
PBMC, isolated as described above, to be used as stimulators in the assay were adjusted to 2-4×10^6 cells/ml in complete medium (RPMI 1640 containing 10% heat-inactivated human AB serum, 2 mM glutamine, 50 μM 2-mercaptoethanol and 100 U/ml penicillin-100 μg/ml streptomycin), and treated with mitomycin C (25 μg/ml) for 30 min in a 37° C. water bath. Following treatment, cells were washed with S volumes of complete medium 3×, and viable counts determine using trypan blue. To set up autologous stimulation controls some responder cells were also treated with mitomycin C as mentioned above.
Purified CTLA-4Ig fusion protein was produced, as described in Steurer et al. 1995, from a NS-1 cell line kindly donated by Dr. T. Strom (Beth Israel Hospital, Boston, Mass.) as a 1 mg/ml solution in sterile PBS. The protein was stored frozen at −80° C. Upon thawing, the aliquot was stored at 4° C. Purified peptides were lyophilized according to known procedures. Peptides were reconstituted in sterile PBS, pH 7.4 at 2 mM concentration, aliquoted in microfuge cubes and stored frozen at −20° C. For the assay, an aliquot of the peptide was thawed and diluted to 200 μM in complete medium.
For the one-way allogeneic mixed lymphocyte response (MLR) assay, responder cells were plated at 10^6 cells/well, and stimulator cells at 5×10^4 cells/well in 96-well round bottom plates. Cells were incubated with serial dilutions of the anti-CD4 Ab Leu 3A (1 μg/ml-0.06 μg/ml) in triplicate, or an isotype-matched control Ab. Cyclosporin A at 1 μg/ml was used as an additional control.
CTLA-4 Ig was serially diluted an.4 tested from 10 μg/ml to 0.15 μg/ml. Peptides were tested either directly or in the presence of a constant spiked-in dose of CTLA-4 Ig at 0.5 μg/ml. The plates were incubated at 37° C. in a humidified 5% CO2 atmosphere for 7 days.
Proliferation of the cells was determined by pulsing the wells with ^3H-Tdr (1 μCi/well) for the last 18 h of the assay. Plates were harvested using a Tomtec -late harvester and the counts incorporated determined using a Wallac microbetaplate plus reader.
A total of 34 peptides were tested for inhibition of lymphocyte proliferation in the human MLR. Each peptide was tested in a MLR at doses ranging from 12.5 to 100 μM. The activity of each peptide was identified by assigning a + and − tone peptide depending on its ability to inhibit lymphocyte proliferation in the MLR (cpms).

The subject of assay [2] is murine MLR splenocyte proliferation. Put plainly: One-way murine MLR (C57Bl/6 stimulators, BalB/c responders). It is filed as cell-based, mouse. To be noted: peptides tested 100 μM to 1.56 μM (FIG. 9). How it is done:
One-way murine MLRs were set up using the C57Bl/6 mice splenocytes as stimulators and BalB/c splenocytes as responders.
Spleens were excised from mice (Jackson Laboratories, Bar Harbor, Ma.) 6-8 weeks of age. Cells were separated from the capsule using sterile frosted glass slides and washed in cold RPMI 1640 1×. Red blood cells were lysed by treating the spleen cell suspension with cold Tris ammonium chloride buffer (2 ml/spleen) for 3 min on ice. After lysis, the cells were washed 2× in 5 volumes of complete medium (RPMI 1640 containing 10 % heat-inactivated FBS, 2 mM glutamine, 50 μM 2-mercaptoethanol, 100 U/ml penicillin-100 μg/ml strepcomycin, 1 mM sodium pyruvate and 1 mM non-essential amino acids).
Plastic-adherent cells were removed from splenocytes of BalB/c mice by adjusting the cell concentration to 3×10^6 cells/ml in complete medium and incubating the cells for 1.5-2 h at 37° C. in T-75 flasks. Following incubation non-adherent cells were collected by gently washing the flasks and the percent recovery determined (60-70%). Bal b/C responder cells were stored on ice until mitomycin C treatment of stimulator cells was completed.
Following RBC lysis splenocytes of C57Bl/6 mice were adjusted to 2-4×10^6 cells/ml in complete medium and treated with mitomycin C (50 μg/ml) for 30 min at 37° C. in a humidified 5% CO2 in air atmosphere. Following treatment, cells were washed with 5 volumes of complete medium 3×, and viable counts determined using trypan blue.
To set up autologous stimulation controls some responder cells were also treated with mitomycin C as mentioned above.
For the assay, responder and stimulator cells were plated at 10^5 cells/well in 96-well round bottom plates. […]
Appropriate scrambled peptide controls and matrix controls were included in every assay. […] Proliferation of the cells was determined by pulsing the wells with 3H-Tdr (1 μCi/well) For the last 6 h of the assay. Plates were harvested and the counts incorporated determined as described above.

Assay [3] has as its system binding of CTLA-4Ig to B7 on Cess B cells. Description: CTLA-4Ig/B7 binding assay on Cess B cells by FACS. The arrangement: key to Binding Assay (effect on CTLA-4Ig binding to Cess B cells): −: no change in binding; +: a minor change of <10% in binding; ++: a change of >20% in binding. To be noted: FACS; assays of 3/24, 3/25, 4/5, 4/25; one symbol per assay. Here is the method:
+++ was assigned if the peptide tested gave >50% change in cpm in a dose dependent fashion. In addition to the MLR, these 34 peptides were also evaluated in a CTLA-4Ig/B7 binding assay in which the ability of these peptides to affect the binding of CTLA-4Ig to B7 on Cess B cells was examined by FACS analysis.
As with the MLR, a + or − was assigned to each peptide depending on its ability to effect CTLA-4Ig binding to Cess B cells; where − represents no change in binding, + represents a minor change of <10% in binding, and a ++ represents a change of >20% in binding.
(In flow cytometry, cells or beads pass a laser one at a time.)

Assay [4] concerns the target B7 on Cess B cells. Put plainly: cell-based or functional assay.
Assay [5] concerns the target B7 on Cess B cells. Description: FACS competition with CTLA-4Ig on Cess B cells; one grade per run; - no change, + <10% change, ++ >20% change.

From US6337316B1, “Pharmaceutical compositions thereof, and methods of using same” (Applied Research Systems ARS Holding N.V., priority 1997, dated 2002) come the findings set out here.

Bridge positions count the residues as written; N and C are the ends. Ends that are not written are not given here.

As to “AT 199.3: resynthesis of AT 199.1 using the original protocols without change (RKCLMYPPPYYCHH; disulfide 3-12 (inferred); not fully specified (C-terminus); also: disulfide cyclisation only partial, mixed cyclic and linear population)”, the “inhibition of the human MLR” value in assay [1] (100 μM, one MLR) came to 30%. Moreover, the “effect on the human MLR in combination with CTLA-4Ig” value in assay [1] is “inhibited the MLR over and above CTLA-4Ig by itself”. Also, the “inhibition of the murine MLR” value in assay [2] is reported as 85%.
Take KYLVKQS-OH [AT 122.1]: the “Human MLR (ability to inhibit lymphocyte proliferation, cpm)” value in assay [1] is “−, −”. Moreover, the “Binding Assay (effect on CTLA-4Ig binding to Cess B cells)” value (“Binding Assay” below) in assay [3] is listed as “+, −”.
The corresponding values for LDSAVEV [AT 116.1] are “− (all concentrations of peptide tested gave <15% change in cpm)” and “−”.
With LDSAVEV-OH [AT 117.1], in assay [1], the “Human MLR (ability to inhibit lymphocyte proliferation, cpm)” value was “− (all concentrations of peptide tested gave <15% change in cpm)”. Besides, the “Binding Assay” value in assay [3] is listed as “+ (a minor change of <10% in binding)”.
Turning to “NECTFCDD (not fully specified (bridges); cysteine pairing not given here) [AT 197.1]”, in assay [1], the “Human MLR (ability to inhibit lymphocyte proliferation, cpm)” value was “−, −, −”. In assay [3], the “Binding Assay” value was “−, −, −”.
With “RKCLAYPPPYYCHH (not fully specified (bridges); cysteine pairing not given here) [AT 200.1]”, in assay [1], the “inhibition of the MLR, in words” value is reported as “did not inhibit any of the MLRs as much as AT 199” and the “Human MLR (ability to inhibit lymphocyte proliferation, cpm)” value is reported as “−, −, −”. The “Binding Assay” value in assay [3] is “−, −, −”.
In the case of “RKCLGYPPPYYCHH (not fully specified (bridges); cysteine pairing not given here) [AT 201.1]”, in assay [1], the “effect on the human MLR in combination with CTLA-4Ig” value is listed as “no effect”; the “inhibition of the MLR, in words” value is recorded as “did not inhibit any of the MLRs as much as AT 199”; the “Human MLR (ability to inhibit lymphocyte proliferation, cpm)” value is given as “−, −, −”. Besides, the “inhibition of the murine MLR” value in assay [2] was found to be 25%. In addition, the “Binding Assay” value in assay [3] is listed as “−, −, −”.

B1: AT 199.1 (peptide)
peptide: RKCLMYPPPYYCHH
modifications: disulfide 3-12; not fully specified (C-terminus)
For B1, in assay [4], the apparent IC50 of inhibition in the MLR was 50 to 100 µM; the inhibition of human MLR by batch AT 199.2A at 100 µM, one MLR worked out at 50%; the inhibition of human MLR by batch AT 199.2A, another MLR stood at 25%; the inhibition of human MLR by batch AT 199.3 at 100 µM, one MLR is 30%. In assay [4], the inhibition of lymphocyte proliferation in a human MLR (AT 199, doses up to 100 µM) is 70% and the inhibition of lymphocyte proliferation in a second human MLR (AT 199, doses up to 100 µM) was found to be 30%.

B2: AT 135.1 (peptide)
peptide: CSPNQC
modifications: disulfide 1-6 (inferred); not fully specified (C-terminus)
With B2, the percent change in CTLA-4Ig binding to B7 on Cess B cells (FACS) in assay [5] is above 20%.

B3: AT 128.1 (peptide)
peptide: CRQADSQVTEC
modifications: disulfide 1-11 (inferred); not fully specified (C-terminus)
For the molecule B3, the percent change in CTLA-4Ig binding to B7 on Cess B cells (FACS) in assay [5] is below 10%.

B4: AT 129.1 (peptide)
peptide: CMYPPPYYRGGKC
modifications: disulfide 1-13 (inferred); not fully specified (C-terminus)
For B4, the percent change in CTLA-4Ig binding to B7 on Cess B cells (FACS) in assay [5] is above 20%.

B5: AT 117.1 (peptide)
peptide: LDSAVEV-OH
Consider B5, for which the percent change in CTLA-4Ig binding to B7 on Cess B cells (FACS) in assay [5] was below 10%.
